Results reported in patent US8202997B2, “Compositions and methods for treating or preventing hypoxic or ischemic injury” (Ikaria, Inc., priority 2008, dated 2012).

Columns and labels:
[1] = test system: hepatic ischemia-reperfusion (I/R) injury; assay: Murine hepatic ischemia-reperfusion injury model; type: in vivo, mice; conditions: for serum liver transaminase (ALT) levels: C57-BL6/J mice, after five hours reperfusion, compared to vehicle
Description: The ability of compound (3-1) to provide cytoprotective benefit in a model of hepatic ischemia-reperfusion (I/R) injury was tested in mice.
The mice used in these studies were C57-BL6/J mice, 8-10 weeks, (Jackson Laboratory, Bar Harbor, Me.). Food and water were provided ad libitum. Test animals were allowed to acclimate in a temperature and humidity controlled environment prior to the commencement of experimental procedures.
Mice were anesthetized with ketamine and xylazine and maintained with warming during surgical procedures to induce hepatic ischemia-reperfusion (UR) injury. Specifically, a midline incision was performed to expose the liver, and heparin was injected to prevent blood clotting. Both the hepatic artery and portal vein were clamped with microaneurysm clamps to render the left lateral and median lobes of the liver ischemic. Ischemia proceeded for 45 minutes, with the liver maintained in the peritoneal cavity in its original location and kept moist with gauze soaked with 0.9% normal saline. Control mice received sham surgeries, although hepatic blood flow was not reduced with a microaneurysm clamp. At the end of 45 minutes, microaneurysm clamps were removed. Serum liver transaminase levels (ALT) were tested after five hours of hepatic reperfusion using spectrophotometry and commercially available reagents (Sigma-Aldrich).
Murine hepatic ischemia-reperfusion injury test animals were randomized to four groups. Group 1: vehicle (EtOH/PEG300+0.1% citric acid) treated; Group 2: treatment with 7 mg/kg Compound (3-1); Group 3: treatment with 15.0 mg/kg Compound (3-1). […] ALT levels were reduced in the two treatment groups (7.0 mg/kg, and 15.0 mg/kg), compared to vehicle.

[2] = test system: myocardial ischemia-reperfusion (I/R) injury; assay: Murine myocardial ischemia reperfusion model; type: in vivo, mice
Description: The ability of compound (3-1) to provide cardioprotective benefits in a myocardial ischemia-reperfusion (I/R) injury model was tested in mice. In this study, it is shown that bolus administration of compound (3-1) into the left ventricular cavity post-ischemia and five minutes prior to a 24-hour reperfusion period reduced myocardial ischemia and reduced myocardial infarct size as a percentage of risk area. The mice used in these studies were C57-BL6/J mice, 8-10 weeks, (Jackson Laboratory, Bar Harbor, Me.). Food and water were provided ad libitum. Test animals were allowed to acclimate in a temperature and humidity controlled environment prior to the commencement of experimental procedures.
Mice were anesthetized with ketamine and pentobarbital sodium and maintained with warming during surgical procedures to induce myocardial ischemia-reperfusion (I/R) injury. […]
After 24 hours of reperfusion, post-ischemia, mice were anesthetized, intubated, and connected to a rodent ventilator. […] Each of the five myocardial slices (1-mm) were weighed, areas of infarction, area at risk (AAR), and non-ischemic left ventricle were assessed with computer-assisted planimetry by an observer blinded to sample identity. […]
Data were analyzed by 2-way ANOVA with post-hoc Bonferroni analysis using StatView software version 5.0 (SAS Institute). […]

c1ccc(CSSSSCc2ccccc2)cc1 [Compound 3-1, 1,4-dibenzyltetrasulfane]
serum liver transaminase (ALT) levels ([1]; 7 mg/kg intraperitoneal bolus post-ischemia (45 min)): statistically significant reduction
serum liver transaminase (ALT) levels ([1]; 15.0 mg/kg intraperitoneal bolus post-ischemia (45 min)): reduced
liver transaminase alanine aminotransferase (ALT) measured in serum ([1]; mice, intraperitoneal bolus post-hepatic ischemia, immediately prior to five hour reperfusion, dose not given): decreased
myocardial infarct size as a percentage of risk area ([2]; C57-BL6/J mice, 7 mg/kg bolus into left ventricular cavity after 30 minutes ischemia, five minutes prior to 24 hour reperfusion): reduced
myocardial ischemia ([2]; mice, bolus into left ventricular cavity post-ischemia, five minutes prior to 24-hour reperfusion): reduced
